We go through 2 compounds from US20220017877A1, “BILIRUBIN OXIDASE ACTIVITY IMPROVING METHOD, AND BILIRUBIN OXIDASE PRODUCT” (OZEKI CORPORATION, priority 2018, published 2022).

SMILES strings stand for the structures.

This series is described as follows: ABTS initial absorbance (A436) reduction rate (Test Example 3). It counts as physicochemical. The following applies: in one minute at 25° C.; 1 mM (single compound) or 0.011 g nitrogen element in 100 mL (composition); pH 8.5. The text has this: In the present specification, the absorbance of a solution containing ABTS (ABTS solution), at a wavelength of 436 nm, is defined as an ABTS initial absorbance (A436). In the present specification, the ABTS initial absorbance (A436) reduction rate (%) of the activity improving agent is defined to be a reduction rate (%) of the absorbance of a mixed solution, which contains the above ABTS solution and the above activity improving agent, at a wavelength of 436 nm in one minute, with respect to the ABTS initial absorbance (A436) (100%). Note that the ABTS solution is a solution in which the concentration of ABTS is adjusted such that the absorbance (A436) at a wavelength of 436 nm is approximately 1.3 at an optical path length of 1.0 cm. The value “approximately 1.3” here is intended to mean a value in a range in which 1.3 is obtained by rounding the value to the first decimal place. Test Examples described later will explain specific methods for measuring the absorbance (A436) of the ABTS solution at a wavelength of 436 nm and the ABTS initial absorbance (A436) reduction rate (%) of the activity improving agent. ABTS is an abbreviation for 2,2′-azinobis(3-ethylbenzothiazoline-6-sulfonic acid).
In the present activity improving method, when the ABTS initial absorbance (A436) reduction rate (%) of the activity improving agent is measured, the concentration of the activity improving agent in the ABTS solution for measurement is set as follows: (a) the concentration is set to 1 mM, when the molecular weight of the activity improving agent is evident as in a case where the activity improving agent is made of a single compound; and (b) when the activity improving agent is a substance which is made of a composition having an inevident molecular weight, the content of nitrogen element is used as a reference and the concentration is set such that the content of nitrogen element derived from the activity improving agent is 0.011 g in 100 mL of the ABTS solution for measurement. Note that, in the above (b), the content of nitrogen element derived from the activity improving agent in the ABTS solution is a value calculated by the Kjeldahl method.
The following describes a specific evaluation method. ABTS employed was an ABTS manufactured by Roche Diagnostics K.K. Further, the ABTS was dissolved in a 50 mM glycine-KOH (pH 8.5) buffer so that the concentration of the ABTS became 2.0 mg/mL. An ABTS solution was thus prepared. The absorbance of the ABTS solution at a wavelength of 436 nm (ABTS initial absorbance (A436)) was measured at an optical path length of 1.0 cm, by using a molecular absorption spectrometer Spectra Max Plus 384 (manufactured by Molecular Devices Japan K.K.). As a result the absorbance was approximately 1.3. Next, 5 μL of an activity improving agent solution or a comparative substance solution was added to 195 μL of the ABTS solution, so that a reaction solution for evaluating ABTS (hereinafter, also referred to as “reaction solution A”) was prepared. […]

On to `O=C1O[C@H]([C@@H](O)CO)C(O)=C1O` [L-ascorbic acid], for which the “A436 reduction rate (%)” value is listed as 87.81%. In the case of `O=c1[nH]c(=O)c2[nH]c(=O)[nH]c2[nH]1` [Uric acid, uric acid] it was 71.49%.
